Data on one molecule can be found in patent US6355624B1, “Measurement of plasma volume” (University Wales College of Medicine, priority 1997, dated 2002).

Where “and” joins values, the source holds several entries; their conditions need not be identical. Identical values can stand only once.

As a reminder, the Vd is a proportionality between amount in the body and measured concentration, not a real space. Low values mean confinement near the circulation, high ones extensive tissue distribution.

Data set [1] is described as follows: Volume of distribution of FITC-Elohaes compared with Evans Blue labelled albumin in healthy and endotoxic newborn piglets. Conditions: approx 1.0 mg/kg, individual piglets and mean; for Vd: pig, in vivo, iv, 1 mg/kg. On the procedure:
Seventeen piglets were used in this study. The animals were randomised into two groups, a healthy (control) group and an Escherichia coli (endotoxic) group. The animals of the endotoxic group received a bolus injection of E. coli (1.667 μg/kg), followed by a continuous infusion of E. coli (1.667 μg/kg/hr) throughout the experiment. The control group received the same dose of isotonic saline injection and infusion. Approximately 30 minutes thereafter, a sample of blood (0.6 ml) was obtained from the femoral vein catheter prior to injection of the plasma marker. A volume between 0.5 ml and 1.0 ml of the indicator was injected {of approximately 1.0 mg/kg for both plasma markers} via the femoral vein catheter into the bloodstream. The catheter was then flushed clean with an equal volume of isotonic saline. […] As before, following the withdrawal of each sample, the catheter was flushed with an equal volume of isotonic saline. Samples were obtained at various time intervals over a 6 hour period, the majority were collected within the first hour after administration of the plasma marker. Blood samples were then centrifuged at approximately 2500 r.p.m for 10-15 minutes and plasma/serum withdrawn.

The nature of data set [2]: Volume of distribution (plasma volume) of FITC-Elohaes compared to Evans Blue labelled albumin in healthy rabbits. The settings on record: both, rabbit, in vivo, 0.2 mg/ml.
Protocol: All rabbits used were adults of either sex, weighing approximately 3 kg. Both ears of the rabbit were first anaesthetised by topical application of Elma cream about 30 minutes prior to commencement of the procedure. A small cut was made into the left ear vein, using a scalpel, to enable relatively simple blood sampling. A sample of blood (approximately 1.0 ml) was obtained from the cut ear vein and collected into tubes coated with anti-coagulant (EDTA). […] A mixing time of at least 5 minutes was allowed before blood sampling began. Blood samples (≈1.0 ml) were then withdrawn at various time intervals following injection, up to a maximum of 2 days. Most samples were collected within the first 3 hours and no more than 9 post-injection blood samples were taken from each rabbit. The blood samples were then centrifuged {Centaur 2} at 2300 r.p.m. for 10-15 minutes and the plasma withdrawn.
The minimisation procedure was obtained from the NAG library {Numerical Algorithms Group, Oxford; Routine E04FCF:NAGFLIB:1652/0: Mk7: December 1978}. This routine was called by a programme, written by the user and incorporated a subroutine with the appropriate mathematical equation. […]
Thus, the volume of distribution was calculated from the degree of dilution (El-Sayed et al., 1995).
The mark [3] stands for this setting: endotoxic (E. coli) newborn piglets.

With `Cc1cc(-c2ccc(/N=N/c3ccc4c(S(=O)(=O)O)cc(S(=O)(=O)O)c(N)c4c3O)c(C)c2)ccc1/N=N/c1ccc2c(S(=O)(=O)O)cc(S(=O)(=O)O)c(N)c2c1O` [Evans Blue], the VD in data set [1] (setting [3]) was 0.1401 L/kg and 0.0917 L/kg and 0.1138 L/kg and 0.1129 L/kg and 0.0783 L/kg; in data set [1] (healthy newborn piglets), 0.0851 L/kg and 0.0862 L/kg and 0.0835 L/kg and 0.0869 L/kg. Besides, the Vd in data set [1] (setting [3]) was 0.0983 L/kg; in data set [1] (healthy newborn piglets) it was 0.0896 L/kg; in data set [2] it was 0.0531 L/kg.
